Peptide text beside a SMILES is read from it. * marks the point of attachment. Cbz = O=C(OCc1ccccc1)*
Tests used:
[1] = test system: human skin explants; assay: Depigmentation of human skin explants by NNT activators; format: cell-based; conditions: for ability to depigment skin: after 36 hours, FIGS. 13A-B; for ability to depigment skin / Dose needed to depigment within 36 h (skin type 2): DMSO-based carrier; for Dose needed to depigment within 36 h (skin type 2): single dose or lower end of the dose range
Method: (§1) Skin samples considered surgical waste were obtained de-identified from healthy donors (IRB #2013P000093) undergoing reconstructive surgery, according to institutional regulations. Full thickness human abdominal skin explants were cultured in petri dishes with a solid phase and liquid phase phenol red free DMEM medium containing 20% penicillin/streptomycin/glutamine, 5% fungizone (Gibco), and 10% fetal bovine serum. Compounds were applied strictly on top of the explants, making sure no drip occurred into the underlying media. For UV irradiation experiments, a UV lamp (UV Products) was used at 1000 mJ/cm^2 UVB.
The ability of ASS, Usnic acid, 4-hexylresorcinol, candesartan, Nigericin, elaidylphosphocholine, hexitidine, naproxol, and Ginkgolic acid to depigment skin was tested in human skin explants. A DMSO-based carrier solution was used. DMSO was used as a negative control. […]

[2] = test system: mouse B16 melanoma cells; assay: In vitro depigmentation of B16 melanoma cells; format: cell-based; conditions: 2 uM or 10 uM, DMSO-based carrier, 1-5 days (average 1.5 days), FIG. 12A
Method: (§2) The ability of 2 uM or 10 uM ASS, Usnic acid, 4-hexylresorcinol, candesartan, Nigericin, and Ginkgolic acid to depigment was evaluated in mouse B16 melanoma cells and melan-A melanocytes. A DMSO-based carrier solution was used, and the experiments carried out for 1-5 days, with an average of 1.5 days. 4-n-Butylresorcinol, N-Acetylcystein (NAC), and Phenylthiourea (PTU), were used as a positive control, and DMSO as a negative control.

[3] = test system: mouse melan-A melanocytes; assay: In vitro depigmentation of melan-A melanocytes; format: cell-based; conditions: 2 uM or 10 uM, DMSO-based carrier, 1-5 days (average 1.5 days), FIG. 12B
Method: Murine Melan-A (Bennett et al., 1987) cells were obtained from the Wellcome Trust Functional Genomics Cell Bank. Melan-A cells were grown in RPMI 1640 supplemented with 10% FBS or FetalPlex (Gemini Bio-Products, #100-602), 100,000 U/L penicillin, 100 mg/L streptomycin sulphate, 100× Glutamax, and 200 nM TPA.
as §2

[4] = test system: human skin explants (Fitzpatrick skin type 2); assay: Prevention of UVB-driven pigmentation in human skin explants; format: cell-based; conditions: UVB 150 mJ/cm^2
Method: as §1
The ability of a number of NNT activators to prevent UVB-driven pigmentation of skin was evaluated in human skin explants (Fitzpatrick skin type 2) with application of UVB 150 mJ/cm^2. […]

[5] = test system: NNT; assay: Immunoblot of NNT after redox modulators; format: cell-based, human; conditions: UACC257, NAC 5 mM, MitoTEMPO 20 μM, H2O2 100 μM, daily for 72 hours
Method: Immunoblotting: Whole-cell protein lysates were prepared using RIPA lysis buffer (Sigma-Aldrich, #R0278) supplemented with Protease and Phosphatase Inhibitor (ThermoFisher Scientific, #P178445). Protein concentrations were quantified using the Pierce BCA protein assay (ThermoFisher Scientific, #23225). Immunoblotting was performed by standard techniques using 4-15% Criterion TGX Precast Midi Protein gels (Bio-Rad Laboratories, #5671084) and transferring to 0.2 μm nitrocellulose membranes (Bio-Rad Laboratories, #1620112). Membranes were blocked with 5% non-fat milk (Boston BioProducts, #P-1400) in PBS containing 0.1% […] and incubated with one of the following primary antibodies at the indicated dilution (antibody sources are in the Key Resources Table): 1:20 dilution of anti-MITF monoclonal antibody CS, 1:1,000 dilution of anti-Tyrosinase clone T311, 1:1,000 dilution of anti-Mitofusin-2 antibody [6A8], 1:500 dilution of TRP2/DCT antibody, 1:1,000 dilution of anti-NNT antibody [8B4BB10], 1:1,000 dilution of anti-IDH1 ([…]) antibody, 1:1,000 dilution of p53 antibody [PAb 240], 1:1,000 dilution of TYRP1 antibody [EPR21960], 1:1,000 dilution of mouse monoclonal antibody Pmel17 (E-7), or 1:1,000 dilution of LC3B (D11) rabbit monoclonal antibody. Incubation with the appropriate secondary antibody followed, either a 1:5,000 dilution of donkey anti-Rabbit IgG-HRP or a 1:3,000 dilution of Amersham ECL mouse IgG, HRP. To verify equal loading of samples, membranes were re-probed with a 1:20,000 dilution of monoclonal anti-β-actin-peroxidase (Sigma Aldrich, #A3854). Protein bands were visualized using Western Lightning Plus ECL (PerkinElmer, #NEL105001EA) and quantified using ImageJ software (NIH).

[6] = test system: tyrosinase; assay: Cycloheximide chase assay of tyrosinase protein stability; format: cell-based, human; conditions: then CHX
Method: Cycloheximide chase assay: 72 h after siRNA transfection (sicontrol or siNNT), UACC257 melanoma cells were treated with a protein synthesis inhibitor, cyclohexamide (CHX, Sigma Aldrich #C7698, 50 μg/ml), for the indicated times and then immediately subjected to immunoblotting for tyrosinase protein expression. The expression of tyrosinase was quantified using ImageJ software based on band intensities and normalized to the intensities of the corresponding β-actin bands. The normalized tyrosinase expression was then defined as relative tyrosinase expression by setting the mean values at t=0 in each experimental group to 1.0. […] The siRNA-transfected cells were cultured for an additional 48 h in the presence of these agents and then examined by the CHX chase assay as described above. pLJM-1-EGFP or pLJM1-NNT/FLAG was introduced into UACC257 cells using Lipofectamine 3000, 48 after transfection, the transfection medium was replaced with fresh medium containing DMSO or 10 μM MG132 (Sigma Aldrich #M8699) and pre-incubated for 6 h. Then. CHX was added to assess tyrosinase protein stability as described above.

[7] = test system: UACC257 cells; assay: siNNT-induced pigmentation with antioxidants, melanin content; format: cell-based, human; conditions: NAC 5 mM, MitoTEMPO 20 μM daily for 72 h; NADPH 0.1 M
Method: sIRNA transfection: A single treatment of 10 nmol/L of siRNA was delivered to a 60% confluent culture by transfection with Lipofectamine RNAiMAX (Life Technologies, #13778150) according to the manufacturer's recommendations. After 48-72 h of transfection, total RNA or protein was harvested. Melanin quantification: Equal numbers of cells were plated in 6-well plates. The cells were then harvested 72-96 hours post siRNA or NNT inhibitors compounds, as indicated in the legends, pelleted, washed in PBS and counted. 10^6 cells were used for measurement of protein concentration with the Pierce BCA protein assay (Thermo Fisher Scientific, #23225) and 10^6 cells were resuspended in 60 μl of 1 N NaOH solution and incubated at 60° C. for 2 h or until the melanin was completely dissolved. After cooling down to room temperature, samples were centrifuged at 500×g for 10 min and the supernatants were loaded onto a 96-well plate. The melanin content was determined by measuring the absorbance at 405 nm on an Envision plate reader, compared with a melanin standard (0 to 50 μg/ml; Sigma Aldrich, #M8631). Melanin content was expressed as micrograms per milligram of protein.

SMILES | ability to depigment skin [1] | Dose needed to depigment within 36 h (skin type 2) ([1]; human skin explants) [µM] | ability to depigment [2] | ability to depigment [3] | Dose needed to inhibit UVB-induced tanning (skin type 2) [4] [µM] | further results
CCCCCCc1ccc(O)cc1O [4-hexylresorcinol] | depigmenting effects | 5 | depigmenting effects | depigmenting effects | 1000 | –
CC(=O)Oc1ccccc1C(=O)O [ASS, Acetylsalicylic Acid] | depigmenting effects | ≥ 5 | depigmenting effects | depigmenting effects | 10 | –
CCCCCC/C=C\CCCCCCCc1cccc(O)c1C(=O)O [Ginkgolic acid] | depigmenting effects | ~50 | depigmenting effects | depigmenting effects | 100 | lightening by Fontana Masson and H&E staining ([1]; FIG. 13C): displayed lightening effects; nuclear capping ([1]; FIG. 13C): Nuclear capping was present; Dose needed to depigment within 36 h (skin type 2), result in words ([1]; human skin explants): n.s.
OO [H2O2, Hydrogen peroxide] | – | – | – | – | – | NNT protein levels [5]: did not impact NNT protein levels
CC(C)C[C@@H](C=O)NC(=O)[C@H](CC(C)C)NC(=O)[C@H](CC(C)C)NC(=O)OCc1ccccc1 [MG132, carbobenzoxy-L-leucyl-L-leucyl-L-leucinal] (Cbz-Leu-Leu-Leu-aldehyde) | – | – | – | – | – | tyrosinase protein stability in NNT-overexpressing cells ([6]; UACC257, 10 μM for 6 h): prevented an NNT overexpression-induced decrease in Tyrosinase protein stability
NC(=O)C1=CN([C@@H]2O[C@H](COP(=O)(O)OP(=O)(O)OC[C@H]3O[C@@H](n4cnc5c(N)ncnc54)[C@H](OP(=O)(O)O)[C@@H]3O)[C@@H](O)[C@H]2O)C=CC1 [NADPH, β-nicontinamide adenine dinucleotide 2′-phosphate] | – | – | – | – | – | siNNT-mediated increase in pigmentation [7]: inhibited the siNNT-mediated increase in pigmentation; siNNT-increased tyrosinase protein stability ([6]; UACC257, 5 mM NAC, 0.1 mM NADPH, 20 μM MitoTEMPO for 48 h): prevented
CO[C@@H]1C[C@@H](C[C@H]2CC[C@H](C)[C@H]([C@@H](C)C(=O)O)O2)O[C@]2(O[C@](C)([C@H]3CC[C@@](C)([C@@H]4O[C@@H]([C@H]5O[C@@](O)(CO)[C@H](C)C[C@@H]5C)C[C@@H]4C)O3)C[C@H]2C)[C@@H]1C [Nigericin] | depigmenting effects | 5 | depigmenting effects | depigmenting effects | 10 to 100 | –
CC(=O)c1c(O)c(C)c(O)c2c1OC1=CC(=O)C(C(C)=O)C(=O)C12C (centres unmarked) [Usnic acid, usnic acid] | – | ≥ 5 | – | – | 100 | –
CCOc1nc2cccc(C(=O)O)c2n1Cc1ccc(-c2ccccc2-c2nnn[nH]2)cc1 [candesartan, 1-((2′-(1H-Tetrazol-5-yl)-[1,1′-biphenyl]-4-yl)methyl)-2-ethoxy-1H-benzo[d]imidazole-7-carboxylic acid] | depigmenting effects | ≥ 50 | depigmenting effects | depigmenting effects | 1000 to 10000 | –
CCCCCCCC/C=C/CCCCCCCCOP(=O)([O-])OCC[N+](C)(C)C [elaidylphosphocholine, [(E)-octadec-9-eny] 2-(trimethylazaniumyl)ethyl phosphate] | depigmenting effects | – | – | – | – | –
